Assay: Stabilisation of amidines in aqueous solution by alkane polyols
Text: The compositions of the present invention also comprise an alkane polyol having an N-octanol/water partition coefficient (ClogP) of from +0.2 to +1.55. […] The ClogP values of these materials indicate their hydrophilic/lipophilic balance. Alkane polyols having a ClogP value of between +0.2 and +1.55 are slightly lipophilic, enabling them to interact with the amidines. However, the alkane polyols herein maintain a high enough solubility in water due to the presence of the hydroxy moieties to allow them to maintain the amidine in solution.

| Stabilises Amidines? | Structure (SMILES) |
| --- | --- |
| No | OCCCCCCCCCCO [1,10-decanediol] |
| No | CCCC(O)CO (centres unmarked) [1,2 Pentanediol] |
| Yes | CCCCCCC(O)CO (centres unmarked) [1,2-octanediol] |
| Yes | CCCCCC(O)CO (centres unmarked) [1,2-heptanediol] |
| No | CC(O)CCC(C)O (centres unmarked) [2,5-hexanediol] |
| Yes | CCCCC(O)CO (centres unmarked) [1,2-hexanediol] |
| Yes | OCCCCCCCO [1,7-heptanediol] |
| Yes | OCCCCCCCCCO [1,9-nonanediol] |

— patent US20040228820A1, “Compositions comprising an amidine and an alkane polyol” (The Procter & Gamble Company, priority 2003, published 2004)
